Experiments:
gastric lesions = assay: Cytoprotective effects: inhibition of ethanol-induced gastric lesions (ulcers) in female rats; assay type: in vivo, rat; settings: 2 mg/kg oral; for inhibition at 2 mg/kg: Rattus norvegicus, female rats 205-220 g, 30 min before 1 ml ethanol (80%) orally, examined 1 h after ethanol, read-out: % Inhibition (percent reduction in the number of gastric lesions in the treated group as compared to the control group); for cytoprotective effect (in words): female rats, 80% ethanol-induced gastric lesions
Experimental: Female rats of 205-220 g are deprived of food during the morning. At 1500 hrs, water is removed and the animals are placed in individual cages which prevent them from consuming hair or feces. The following morning, the prostaglandin analogs are administered orally at a fixed dose of 2 mg/kg in 1 ml of water containing 5% ethanol and 1% emulphor. Emulphor EL-620 is used. Thirty minutes later, 1 ml of ethanol (80%) is given orally to induce gastric lesions. One hour after ethanol administration, the animals are sacrificed with carbon dioxide, their stomachs disected out and opened along the greater curvature. Visual examination with a binocular magnifier is undertaken to determine the presence of necrotic ulcerations. The average number of ulcers per stomach is recorded. The control group of rats receiving only vehicle (ethanol 5%, emulphor 1% in water) prior to the administration of 80% ethanol is employed. From the number of ulcerations in control group animals, a percent inhibition is determined which is the percent reduction in the number of gastric lesions in the treated group as compared to the control group.
Following the procedure of Example 1, 2a,2b-dihomo-15-epi-PGF2β, methyl ester is compared for gastrointestinal cytoprotective activity with 2a,2b-dihomo-15-epi-15-methyl-PGF2β, methyl ester.

intestinal lesions = settings: rat; pre-treatment; Robert, et al., Gastroenterology 69:1045 (1974); cited from earlier work

| SMILES | inhibition at 2 mg/kg (gastric lesions) [%] | cytoprotective effect (in words) (gastric lesions) | effect on indomethacin-induced intestinal lesions (in words) (intestinal lesions) |
| --- | --- | --- | --- |
| CCCCC[C@H](O)/C=C/[C@@H]1[C@@H](C/C=C\CCCCCC(=O)OC)[C@H](O)C[C@H]1O [2a,2b-dihomo-PGF2β, methyl ester] | 32 | only modest cytoprotective effects | – |
| CCCCC[C@H](O)/C=C/[C@H]1[C@H](O)CC(=O)[C@@H]1C/C=C\CCCC(=O)O [PGE2] | – | – | effective in reducing indomethacin-inducedintestinal lesions |
| CCCCC[C@@](C)(O)/C=C/[C@@H]1[C@@H](C/C=C\CCCCCC(=O)OC)[C@H](O)C[C@H]1O [2a,2b-dihomo-15-epi-15-methyl-PGF2β, methyl ester] | 100 | totally cytoprotective | – |
| CCCCC[C@](C)(O)/C=C/[C@@H]1[C@@H](C/C=C\CCCCCC(=O)OC)[C@H](O)C[C@H]1O [2a,2b-dihomo-15-methyl-PGF2β, methyl ester] | 96 | virtually totally cytoprotective | – |
| CCCCC[C@@H](O)/C=C/[C@@H]1[C@@H](C/C=C\CCCCCC(=O)OC)[C@H](O)C[C@H]1O [2a,2b-dihomo-15-epi-PGF2β, methyl ester] | 2 | negligable cytoprotective effects | – |

Source: patent publication US4244883A, “2a,2b-Dihomo-15-alkyl-PGF2β compounds” (The Upjohn Company, priority 1979, dated 1981)
